This note sets out measurements from PubChem BioAssay AID652 (University of Pittsburgh Molecular Library Screening Center, 2007).

Broadly, the IC50 is the concentration that gives 50% inhibition. Broadly, the inhibition is the change of the read-out against control, counted positive when it falls.

In one assay the target is Gag-Pol polyprotein (Human immunodeficiency virus type 1 group M subtype B (isolate HXB2)) (UniProt P04585). The assay is described as follows: concentration-response of HIV-1 RNase H blockers – biochemical, probe assessment, dose response (AID 652). The following applies: HIV-1 RT RNase H enzymatic assay.
For `CCN(CC)C1=CC(=O)OC12CCCCC2`, the IC50 was 42.8 µM. Same read-out and setting: next, `C=CCSc1nc2c(cnn2-c2ccc(C)c(C)c2)c(=O)[nH]1`: 13.8 µM; `O=C(COc1ccc(Cl)cc1)Nc1nnc(-c2ccc3c(c2)CCCC3)o1`: 4.49 µM; `O=S(=O)(/N=S1/CC=CCN1S(=O)(=O)c1ccccc1)c1ccccc1` (stereo not given): 4.33 µM. On the same count and under the same terms, the figure for `C1=C(c2ccc(-c3ccccc3)cc2)Nc2ncnn2C1c1ccco1` (stereo not given) is 14.5 µM; for `S=C(c1ccc(Cl)cc1)N1CCOCC1` it is 4.01 µM; for `C=CCOC(=O)C1=C(C)NC(SCC(=O)Nc2ccc(C)c(Cl)c2)=C(C#N)C1c1ccco1` (stereo not given) it is 4.25 µM.

Turning to `COC(=O)C1=C(C)N=c2s/c(=C3\C(=O)Nc4ccccc43)c(=O)n2C1c1ccccc1` (stereo not given), the half-maximal inhibitory concentration (IC50) is 5.94 µM. Same read-out and setting: the figure for `S=C(c1ccc(-c2ccccc2Cl)o1)N1CCOCC1` is 0.926 µM; for `CCCCn1c(CN2C(=O)c3ccccc3C2=O)nc2ccccc2c1=O` it is 12.4 µM; for `O=C(CSc1nc2c([nH]c3ccccc32)c(=O)n1-c1cccc(Cl)c1)N1CCOCC1` it is 23.4 µM.

Still in this assay, the particulars now being: HIV-1 RT RNase H enzymatic assay, inhibition, at 50 µM, stronger effect = higher value.
In the case of `O=c1/c(=C\c2cccn2-c2ccccc2)sc2nc3ccccc3n12`, the inhibition came to 92%. Still for that read-out and setting: the figure for `CC(C)c1ccc(C2CC(=O)N3CN(C)CSC3=C2C#N)cc1` (stereo not given) is 86.9%. For `CCCc1nc2ccccc2c(=O)n1/N=C/c1ccc(O)c(O)c1`, the inhibition was determined as 97.3%. `CCC1(C)Cc2c(sc3c2c(=O)n(C)c2nnc(SCc4ccc5c(c4)OCO5)n32)CO1` (stereo not given): the inhibition came out at 96.2%. Consider `Cc1sc2nc(SCC(=O)NCc3ccco3)n(CCc3ccccc3)c(=O)c2c1C`, for which the inhibition turned out to be 82.4%. Turning to `O=C(O)c1cc(S(=O)(=O)Nc2ccc3oc(=O)sc3c2)ccc1O`, the inhibition came out at 88.2%. With `Cc1cc(-c2nn3c(-c4ccccc4)nnc3s2)c2ccccc2n1`, the inhibition is 94.7%.

As to `CCN(CC)C1=CC(=O)OC12CCCCC2`, the inhibition came to 65.8%. On to `CCc1ccccc1N1CSC2=C(C#N)C(c3ccccc3F)CC(=O)N2C1` (stereo not given), for which the inhibition was determined as 98.5%. Consider `Cc1ccccc1NC(=O)c1c(O)c2cccc3c2n(c1=O)CC3`, for which the inhibition is 84.6%. The same measure, in the same setting: next, `O=C(Nc1ccc(N2CCOCC2)cc1)c1ccc2nc(-c3ccco3)c(-c3ccco3)nc2c1`: 93.4%. Same read-out and setting: next, `CCOc1cc(C2c3c(oc4cc(C)c(Cl)cc4c3=O)C(=O)N2Cc2ccco2)ccc1O` (stereo not given): 76.5%. With `COc1cc(OC)c(C2CC(=O)N3CN(c4ccccc4C)CSC3=C2C#N)cc1OC` (stereo not given), the inhibition came out at 97.9%.

As for `Nc1c(C(=O)N2CCOCC2)sc(=S)n1-c1ccccc1`, the inhibition is 75.2%. For the molecule `Fc1ccc(-c2ccc(-c3nn4c(-c5ccco5)nnc4s3)o2)cc1`, the inhibition amounted to 88%. The same measure, in the same setting: the figure for `COC(=O)c1ccc2c(=O)n(Cc3ccco3)c(SCC(=O)Nc3ccccc3Cl)nc2c1` is 92.2%; for `O=C(NC1CCS(=O)(=O)C1)c1c(NC(=O)C2COc3ccccc3O2)sc2c1CCCC2` (stereo not given) it is 88.4%; for `Cc1cc(C)c2c(=O)n(CC(=O)NCCCN3CCOCC3)sc2n1` it is 80.5%. On to `COc1ccc(-c2nsc(SCC(=O)Nc3cc(C)on3)n2)cc1`, for which the inhibition was 96.6%.

`O=C(c1ccc2c3c(cccc13)C(=O)N(O)C2=O)N1CCCCC1`: the inhibition turned out to be 91.7%. `COc1ccc(N2CSC3=C(C#N)C(c4ccc(OC)c(OC)c4)CC(=O)N3C2)c(OC)c1` (stereo not given): the inhibition stood at 79.7%. On the same count and under the same terms, next, `CCOc1ccc(-n2c(=O)c3c4c(sc3n(CC(=O)NCc3ccco3)c2=O)CCC4)cc1`: 89.9%; `C=CCSc1nc2c(cnn2-c2ccc(C)c(C)c2)c(=O)[nH]1`: 88.6%; `O=C(Cn1c(=O)oc2cc(S(=O)(=O)N3CCCC3)ccc21)NC1CCCc2ccccc21` (stereo not given): 58.8%.

On to `Cc1sc2nc(C(C)Nc3ccccc3N3CCOCC3)[nH]c(=O)c2c1C` (stereo not given), for which the inhibition was found to be 66.5%. For `c1ccc2[nH]c(SN3CCOCC3)nc2c1`, the inhibition was found to be 74.2%.

Take `O=C(COc1ccc(Cl)cc1)Nc1nnc(-c2ccc3c(c2)CCCC3)o1`: the inhibition is 83.7%. Still for that read-out and setting: next, `COC(=O)N(c1ccccc1)P1(=S)OCCO1`: 81.9%. Turning to `Cc1cc(NC(=O)CSc2nc(C3CC3)nc3sc4c(c23)CCC(C)C4)no1` (stereo not given), the inhibition worked out at 94.1%. Same read-out and setting: the figure for `Cc1cc(C)cc(OCC(=O)Nc2nonc2NC(=O)COc2cc(C)cc(C)c2)c1` is 88%; for `Cc1cc(C)c2c(=O)n(CC(=O)N3CCC(N4CCCCC4)CC3)sc2n1` it is 60.1%; for `CC(C)Sc1nc2sc3c(c2c2nnc(SCC(=O)NCc4ccco4)n12)CCCC3` it is 85.1%. Still for that read-out and setting: the figure for `COc1ccc(S(=O)(=O)Nc2ccc(O)c3ccccc23)cc1` is 67.3%; for `COc1cc(-c2nnc3sc(Cc4ccc(Cl)cc4)nn23)cc(OC)c1OC` it is 96.4%; for `c1ccc(Cc2nnc3sc(-c4ccncc4)nn23)cc1` it is 80.4%. On the same count and under the same terms, the figure for `C=CCOc1ccc(CC2C(=O)N(C)C(=O)N(C)C2=O)cc1` is 101%.

Consider `c1ccc(Cc2nn3c(COc4ccccc4)nnc3s2)cc1`, for which the inhibition was 86.8%. As to `CCn1cc(C(=O)NCc2ccco2)c(=O)c2cc(S(=O)(=O)N3CCc4ccccc4C3)ccc21`, the inhibition was found to be 76.8%. Still for that read-out and setting: the figure for `O=C1CC(c2ccco2)Cc2nc(Nc3nc(-c4ccccc4)c4ccccc4n3)ncc21` (stereo not given) is 53.7%; for `CCCc1cc(C(N)=O)c(NC(=O)C2CCCO2)s1` (stereo not given) it is 98.3%. The same measure, in the same setting: next, `O=C1c2sc3nc4ccccc4n3c2C(=O)N1c1ccccc1Cl`: 98.9%; `COc1ccc(OC)c(Nc2nc(-c3ccc(O)c(O)c3)cs2)c1`: 97.8%; `CCOC(=O)c1c(C2COc3ccccc3O2)csc1NC(=O)c1ccco1` (stereo not given): 96.6%. On the same count and under the same terms, next, `Nc1sc2c(c1C(=O)NC1CCS(=O)(=O)C1)CCC2` (stereo not given): 74.5%. As for `O=S(=O)(/N=S1/CC=CCN1S(=O)(=O)c1ccccc1)c1ccccc1` (stereo not given), the inhibition came to 69%. The same measure, in the same setting: next, `COc1ccc(N2CCN(Cc3cc(=O)oc4cc5c(cc34)CCCC5)CC2)cc1`: 88.8%. Take `CN(C)c1cccc(C(=O)Nc2cccc(F)c2)c1`: the inhibition was found to be 72%. On the same count and under the same terms, the figure for `COc1ccc(N2CSC3=C(C#N)C(c4cc(OC)ccc4OC)CC(=O)N3C2)c(OC)c1` (stereo not given) is 93.9%. For `CN1CCN(C(=O)c2sc(=S)n(-c3ccccc3)c2N)CC1`, the inhibition was found to be 73.1%.

With `Cc1nn(CCC#N)c2c1P(=S)(N1CCCC1)OC(c1ccc(F)cc1)=N2` (stereo not given), the inhibition was 90.2%. Turning to `COc1ccccc1CNC(=O)c1cc2c(=O)n(C)c3ccccc3c2n1C`, the inhibition amounted to 86%. For `Cc1ccccc1OCc1nc(-c2ccc(NC(=O)c3ccc4c(c3)OCO4)cc2)no1`, the inhibition is 90.2%. Same read-out and setting: next, `C1=C(c2ccc(-c3ccccc3)cc2)Nc2ncnn2C1c1ccco1` (stereo not given): 48.6%; `Fc1ccc(-c2nnc3sc(-c4ccc5c(c4)OCO5)nn23)cc1`: 72.3%; `C=CCNC(=O)c1c(N)n(-c2ccc3c(c2)OCO3)c2nc3ccccc3nc12`: 55.2%. The same measure, in the same setting: next, `CCOc1ccc(S(=O)(=O)Nc2cc(Sc3ncn[nH]3)c3oc(=O)sc3c2)cc1`: 94.6%. Regarding `CCOC(=O)C(C(C)=O)c1c(Br)c(O)c(O)c2c(C(=O)c3ccc(C)cc3)coc12` (stereo not given), the inhibition came out at 86.7%. On the same count and under the same terms, the figure for `CC(=O)C(C(C)=O)c1c(Cl)c(O)c(O)c2c(C(=O)c3ccccc3)coc12` is 93.1%. Consider `c1ccc(-n2ncc3c2ncn2nc(-c4ccco4)nc32)cc1`, for which the inhibition was found to be 89.8%. For `COc1ccc(C2c3c(oc4ccc(Cl)cc4c3=O)C(=O)N2Cc2ccco2)cc1OC` (stereo not given), the inhibition amounted to 95.9%. The same measure, in the same setting: next, `S=C(c1ccc(Cl)cc1)N1CCOCC1`: 73.5%. As for `COC(=O)c1ccc2c(c1)N(Cc1nc(-c3cccc(C)c3)oc1C)C(=O)C1CCCN21` (stereo not given), the inhibition stood at 78.1%.

As to `COc1ccc(N2CSC3=C(C#N)C(c4cc(OC)c(OC)cc4OC)CC(=O)N3C2)c(OC)c1` (stereo not given), the inhibition was determined as 76.1%. Same read-out and setting: next, `C=CCOC(=O)C1=C(C)NC(SCC(=O)Nc2ccc(C)c(Cl)c2)=C(C#N)C1c1ccco1` (stereo not given): 98.7%. Same read-out and setting: next, `COc1ccc(OC)c(/C=N/c2oc(-c3ccco3)c(-c3ccco3)c2C#N)c1`: 89.5%; `CCn1c2ccccc2c2nc3cc(S(=O)(=O)N4CCOCC4)ccc3nc21`: 88.9%; `N#Cc1nc(-c2ccc(OCc3ccc(Cl)cc3)cc2)oc1NCc1cccnc1`: 99.4%. On to `O=S(=O)(c1ccc(S(=O)(=O)N2CCN(C/C=C/c3ccccc3)CC2)cc1)N1CCCC1`, for which the inhibition was found to be 96.9%.

In the case of `COc1ccccc1N=c1oc2c(OC)cccc2cc1C(=O)NCc1ccco1`, the inhibition stood at 94.1%. As to `O=C(CSc1ncn[nH]1)c1ccccc1`, the inhibition turned out to be 84.1%.

On to `Cc1ccc(-n2c(N)c(C(=O)N3CCCCC3)sc2=S)cc1`, for which the inhibition came out at 79.5%. The same measure, in the same setting: the figure for `CC(C)C1N=C2c3ccccc3N=C(SCC(=O)c3ccc(O)c(O)c3)N2C1=O` (stereo not given) is 99.8%; for `COc1ccc(CCNC(=O)c2c(O)c3cccc4c3n(c2=O)CC4)cc1` it is 67.1%. `COC(=O)c1sc(N2C(=O)c3oc4ccccc4c(=O)c3C2c2cccs2)nc1C` (stereo not given): the inhibition was determined as 95.8%. `c1csc(-c2nn3c(C4COc5ccccc5O4)nnc3s2)c1` (stereo not given): the inhibition was 97.1%.

For `OCCN1CCN(C(=S)c2ccc(Cl)c(Cl)c2)CC1`, the inhibition came out at 76.6%. Consider `c1ccc2c(c1)nnn2Cc1nnc2sc(-c3ccncc3)nn12`, for which the inhibition was 90.6%. In the case of `c1ccc(N2CCN(c3nc4cc5c(cc4s3)OCO5)CC2)cc1`, the inhibition stood at 97.6%. `COCCn1c(-c2ccc(-c3ccccc3Cl)o2)nc2c1c(=O)[nH]c(=O)n2CC(C)C`: the inhibition is 85%. The same measure, in the same setting: the figure for `CC1CCc2c(sc(NC(=O)c3ccc(Cn4cc(Br)cn4)o3)c2C(N)=O)C1` (stereo not given) is 76.3%; for `c1ccc(Cc2nn3c(Cn4nnc5ccccc54)nnc3s2)cc1` it is 96.1%.

For the molecule `CCC1CCCCN1S(=O)(=O)c1ccc(S(=O)(=O)N2CCN(S(=O)(=O)CC)CC2)cc1` (stereo not given), the inhibition was found to be 93%. The same measure, in the same setting: next, `COC(=O)C1=C(C)N=c2s/c(=C3\C(=O)Nc4ccccc43)c(=O)n2C1c1ccccc1` (stereo not given): 85.1%. As for `S=C(c1ccc(-c2ccccc2Cl)o1)N1CCOCC1`, the inhibition was 92.6%. Regarding `O=C(COc1ccc(Br)cc1)Nc1ccc(-c2nnc(-c3ccco3)o2)cc1`, the inhibition turned out to be 95.1%. The same measure, in the same setting: the figure for `Cc1cccc(N2CCN(C(=O)Cn3sc4nc(C)cc(C)c4c3=O)CC2C)c1` (stereo not given) is 86%; for `CCCCn1c(CN2C(=O)c3ccccc3C2=O)nc2ccccc2c1=O` it is 98%. The same measure, in the same setting: next, `COC(=O)c1ccc2c(=O)n(Cc3ccco3)c(SCC(=O)Nc3ccc(C)c(Cl)c3)nc2c1`: 92.1%.

Take `O=C(CSc1nc2c([nH]c3ccccc32)c(=O)n1-c1cccc(Cl)c1)N1CCOCC1`: the inhibition is 82.5%.
